The text below walks through data of patent US20100055133A1, “PHARMACEUTICAL COMPOSITIONS” (Biovail Laboratories International (Barbados) S.R.L, priority 2008, published 2010).

The data set is described as follows: Tetrabenazine solubility across the pH range 2-12 (Comparative Example 1). Type of data set: physicochemical. Here is the method: The following example employs immediate-release tablets of tetrabenazine, in contrast to the controlled-release tablets of the present invention, to determine the solubility of tetrabenazine across the pH range 2-12.
The dissolution of tetrabenazine 12.5 mg and 25 mg immediate-release tablets was conducted in 0.1 M hydrochloric acid solution (pH 1.5).
The solubility of tetrabenazine was determined across the pH range 2-12 in water, adjusted with hydrochloric acid/sodium hydroxide as necessary and if feasible complete dissolutions at pH 7.0 and pH 12.
All samples were protected from light throughout the experiment.

With `COc1cc2c(cc1OC)C1CC(=O)C(CC(C)C)CN1CC2` (stereo not drawn) [tetrabenazine, 1,3,4,6,7,11b-hexahydro-9,10-dimethoxy-3-(2-methylpropyl)-2H-benzo(a)quinolizin-2-one], the solubility entry by setting is: (between pH 4 and pH 12) “approximately 3.0 mg/100 ml”; (pH 3) “approximately 4.0 mg/100 ml”. The solubility category entry is given as “practically insoluble” (between pH 4 and pH 12); “slightly soluble” (pH 2); “practically insoluble” (pH 3); “practically insoluble” (pH range of 3-12).
